Source: article PMC10536004, “Gallation and B-Ring Dihydroxylation Increase Green Tea Catechin Residence Time in Plasma by Differentially Affecting Tissue-Specific Trafficking: Compartmental Model of Catechin Kinetics in Healthy Adults” (Nutrients, 2023)
Where two headings read alike, the source gives them in different places.

Assays:
[1] = test system: nonalcoholic steatohepatitis; parameters: method as in PMID 32688217; details: obese mice, equal doses in diet; cited from earlier work
[2] = test system: Caco-2 monolayer; details: cited from earlier work
[3] = in vivo; cited from earlier work
[4] = Compartmental model of catechin kinetics from plasma and urine pharmacokinetic data after ingestion of GTE confection; type: in vivo, healthy adults
Source text: Data for the present study were obtained from our prior investigation of the pharmacokinetics of green tea polyphenols in healthy adults. The study protocol was approved by the Biomedical Institutional Review Board at Ohio State University (#2017H0246) and registered at ClinicalTrials.gov (NCT03413735). In brief, 19 healthy adults (10 males and 9 females; 27 ± 2 y; 22 ± 0 kg/m^2) who were normotensive (systolic blood pressure, 112.1 ± 2.3 mmHg and diastolic blood pressure, 72.5 ± 1.6 mmHg) normoglycemic (fasting glucose, 92.3 ± 1.8 mg/dL) and normolipidemic (total cholesterol, 181.1 ± 7.8 mg/dL and triglyceride 61.7 ± 7.5 mg/dL) completed the study in the Columbus, Ohio area. Participants were non-smokers, non-users of dietary supplements, non-regular tea drinkers (<2 cups/wk), consumed <3 alcoholic drinks/d, non-pregnant or non-lactating, not using any medications or antibiotics, and had no history of gastrointestinal disorders or surgeries.
Complete details of the pharmacokinetic study were reported in [24]. In brief, participants abstained from polyphenol-rich foods for 3 d. In the fasting state (10–12 h) on day 4, participants voided their bladder, and a catheter was inserted into the antecubital vein to collect blood samples at baseline (0 h) and at 0.25, 0.5, 1, 2, 3, 5, 8, 10, and 12 h post-ingestion of a confection formulated with catechin-rich GTE. Urine was collected in timed intervals from 0–4, 4–8, 8–12, and 12–24 h (Figure 2). Participants received standardized meals at 4 h (11:00), 6 h (13:00) and 12 h (19:00) following confection ingestion. Snacks (e.g., pretzels, crackers) were also provided between 13:00–19:00. All foods were devoid of polyphenols and provided to participants in a eucaloric manner based on estimated energy requirements using the Harris–Benedict formula [25]. Controlled meals were designed to provide 48–55% of energy from carbohydrates, 15–20% from proteins, and 20–35% from fats. No additional foods or beverages, except water, were consumed by participants during the 24 h trial period.
GTE confections were developed as an alternative delivery system for catechins because Americans prefer catechin-deplete black tea over catechin-rich green tea. Confections were prepared in-house and formulated with 84.5% water, 2% sucrose, 6% gelatin, 0.5% citric acid, 6% lime-flavored gelatin, and 1% decaffeinated GTE powder. Confections were prepared within 24 h of the participants’ pharmacokinetics trial and stored at 4 °C. Each participant ingested 2 confections (each 25 g and ~2.5″ cubed), which contained 0.5 g GTE (Sunphenon 90 LB, Taiyo International, Inc., Minneapolis, MN, USA) to provide 445 mg total catechins (290 mg EGCG, 87 mg EGC, 39 mg EC, 28 mg ECG). The catechin content of all confections was confirmed by HPLC analysis. Based on brewed green tea (250 mL prepared with 2.2 g of dry tea leaves) containing ~180 mg total catechins, GTE at 0.5 g approximates 2.5 cups of green tea.
Biospecimen handling and preservation of catechins concentrations in plasma and urine were described. In brief, venous plasma was collected in heparinized tubes, while urine was collected in sterilized containers. Samples were preserved by adding a solution of acetic acid, ascorbic acid, and EDTA, snap-frozen in liquid nitrogen and stored at −80 °C until analyzed. Plasma and urinary catechins (EGCG, EGC, ECG, EC) were analyzed by LC-MS following enzymatic hydrolysis and extraction as reported.
Tissue-specific kinetics of each catechin were determined by model-based compartmental analysis using the Windows version of Simulation, Analysis, and Modeling software (WinSAAM version 3.0.8). The observed data were expressed as a fraction of the ingested dose, i.e., the mass of catechins measured in plasma/urine at specified times divided by the mass of the ingested catechin dose. […]

[5] = test system: pancreatic tumor cells; details: cited from earlier work
[6] = alkaline pH; cited from earlier work
[7] = in vitro; cited from earlier work
[8] = 0.5 g GTE confection, n = 19, two-way ANOVA with Tukey's post-hoc
[9] = fractional catabolic rate from plasma, not statistically significant

| Molecule | mean FCR higher in females compared with males [4, 9] [%] | alleviating pathological evidence of nonalcoholic steatohepatitis [1] | basal-to-apical transport of catechins, rank order ([2]; Caco-2 cell model) | fraction present in human plasma following oral administration of green tea [3] [%] | fractional catabolic rate (FCR), fraction of compound lost irreversibly from plasma per min, rank order [4, 8] | plasma residence time, rank order [4, 8] | fractional transfer rate from plasma to extravascular tissues, rank order ([4]; n = 19) | fractional transfer rate from plasma to kidneys, rank order ([4]; n = 19) | fractional transfer rate from the liver to plasma, rank order ([4]; n = 19) | anti-inflammatory activity compared with EGCG [5] | further results |
| --- | --- | --- | --- | --- | --- | --- | --- | --- | --- | --- | --- |
| Oc1cc(O)c2c(c1)OC(c1ccc(O)c(O)c1)C(O)C2 (single isomer, unassigned; (+)) [catechin, (+)-catechin] |  | effective |  |  |  |  |  |  |  |  |  |
| Oc1cc(O)c2c(c1)O[C@H](c1cc(O)c(O)c(O)c1)[C@H](O)C2 [EGC, epigallocatechin] |  |  |  | 0.58 |  |  |  |  |  |  | basal-to-apical transport of catechins, rank order [2]: EC > EGC > ECG ≈ EGCG; mean FCR higher in females compared with males ([4]; both, human, in vivo): 13%; fractional catabolic rate (FCR), fraction of compound lost irreversibly from plasma per min, rank order ([4]; in vivo): EGC > EGCG = EC > ECG; fractional transfer rate from plasma to extravascular tissues, rank order ([4]; in vivo): EGC > EGCG > EC > ECG; fractional transfer rate from plasma to kidneys, rank order ([4]; in vivo): EGC = EC > EGCG = ECG; fractional transfer rate from the liver to plasma, rank order ([4]; in vivo): EGC > EC > EGCG = ECG; plasma residence time, rank order ([4]; in vivo): ECG > EC = EGCG > EGC |
| catechin gallate [reference compound] |  |  |  |  |  |  |  |  |  | superior |  |

Second part, led by results:

| mean FCR higher in females compared with males [4, 9] [%] | Molecule | alleviating pathological evidence of nonalcoholic steatohepatitis [1] | basal-to-apical transport of catechins, rank order ([2]; Caco-2 cell model) | fraction present in human plasma following oral administration of green tea [3] [%] | fractional catabolic rate (FCR), fraction of compound lost irreversibly from plasma per min, rank order [4, 8] | plasma residence time, rank order [4, 8] | fractional transfer rate from plasma to extravascular tissues, rank order ([4]; n = 19) | fractional transfer rate from plasma to kidneys, rank order ([4]; n = 19) | fractional transfer rate from the liver to plasma, rank order ([4]; n = 19) | anti-inflammatory activity compared with EGCG [5] | further results |
| --- | --- | --- | --- | --- | --- | --- | --- | --- | --- | --- | --- |
| 9 | Oc1cc(O)c2c(c1)O[C@H](c1ccc(O)c(O)c1)[C@H](O)C2 [EC, epicatechin] |  | EC > EGC > ECG ≈ EGCG | 1.1 | EGC > EGCG = EC > ECG | ECG > EC = EGCG > EGC | EGC > EGCG > EC > ECG | EGC = EC > EGCG = ECG | EGC > EC > EGCG = ECG |  |  |
| 5 | O=C(O[C@@H]1Cc2c(O)cc(O)cc2O[C@@H]1c1ccc(O)c(O)c1)c1cc(O)c(O)c(O)c1 [ECG, epicatechin gallate] |  | EC > EGC > ECG ≈ EGCG |  | EGC > EGCG = EC > ECG | ECG > EC = EGCG > EGC | EGC > EGCG > EC > ECG | EGC = EC > EGCG = ECG | EGC > EC > EGCG = ECG | superior | fractional transfer from the small intestine to the liver ([4]; ECG compared with EC): slower; fractional transfer from kidneys to urine ([4]; ECG vs. EC): slower; fractional transfer rate from the upper gastrointestinal tract to the small intestine ([4]; compared with other catechins): faster |
| 33 | O=C(O[C@@H]1Cc2c(O)cc(O)cc2O[C@@H]1c1cc(O)c(O)c(O)c1)c1cc(O)c(O)c(O)c1 [EGCG, epigallocatechin gallate] | more potent | EC > EGC > ECG ≈ EGCG | 0.16 | EGC > EGCG = EC > ECG | ECG > EC = EGCG > EGC | EGC > EGCG > EC > ECG | EGC = EC > EGCG = ECG | EGC > EC > EGCG = ECG |  | loss by degradation in alkaline environment of the small intestine compared with ECG and EC [6]: greater loss; free radical scavenging activity [7]: superior |
